These compounds were tested against T1, Wee1 kinase domain (Homo sapiens, UniProt P30291) (assay: Wee1 Kinase Biochemical Assay (ADP-Glo)). Conditions: 1 nM Wee1 enzyme, 15 uM ATP, 4 hours at 25° C.
T1 construct: Wee1 kinase domain was purchased from Carna (catalog #05-177); purchased Carna 05-177
Protocol: Wee1 Kinase Biochemical Assay Protocol
Wee1 kinase domain was purchased from Carna (catalog #05-177). Wee1 kinase activity was determined with Poly(Lys,Tyr 4:1) hydrobromide as a substrate (Sigma-Aldrich) and by measuring ADP production using the ADP-Glo Kinase Assay kit (Promega) following the manufacturer's instructions. The kinase reaction was performed using the following conditions:
Buffer: 40 mM Tris-HCl, 20 mM magnesium chloride, supplemented with 0.1 mg/mL bovine serum albumin and 2 mM DTT. The final reaction mix contained 1 nM Wee1 enzyme, 15 uM ATP, and 2 ng/mL Poly(Lys,Tyr 4:1) hydrobromide substrate. The reaction time was 4 hours at 25° C.
The ADP-Glo signal was measured using the Envision plate reader and the percentage inhibition of kinase activity calculated for each inhibitor tested. Percent inhibition of Wee1 kinase activity was calculated based on the following formula.
[formula] • SSample: the signal of compounds • SHigh Ctrl: the signal of high control (DMSO) • SLow Ctrl: the signal of low control (positive control Wee1 inhibitor at saturating concentration)

T1 sequence (P30291 299-569 limits assumed): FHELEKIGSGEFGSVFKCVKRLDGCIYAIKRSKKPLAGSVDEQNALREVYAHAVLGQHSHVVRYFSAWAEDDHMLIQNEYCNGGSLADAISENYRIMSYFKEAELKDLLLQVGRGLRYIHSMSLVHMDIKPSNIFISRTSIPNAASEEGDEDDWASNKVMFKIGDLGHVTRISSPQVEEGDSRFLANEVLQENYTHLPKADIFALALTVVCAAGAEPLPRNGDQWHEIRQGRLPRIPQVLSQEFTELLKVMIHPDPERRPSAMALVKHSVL

Row | IC50 | Compound
1 | < 10 nM | CC1(C)C[C@H]2N(c3cccc(N=S(C)(C)=O)n3)c3nc(Nc4ccn(C5CC5)n4)ncc3[C@@]2(C)CO1 (single isomer, unassigned) [Example 831]
2 | < 10 nM | CN(C)C1CCN(c2ccc(Nc3ncc4c(n3)N(c3ccccn3)[C@@H]3CC(C)(C)OC[C@]43C)cc2)CC1 (single isomer, unassigned) [Example 819]

Same assay, conditions: Wee1 kinase domain, 15 uM ATP, ADP-Glo

Row | Compound | IC50
3 | CN1CC[C@H](c2ccc(Nc3ncc4c(n3)N(c3cccc(N=S(C)(C)=O)n3)[C@H]3CC(C)(C)OC[C@@]43C)cc2)C1 (single isomer, unassigned) [Example 134] | 100 to 1000 nM
4 | CNC(=O)c1ccc(Nc2ncc3c(n2)N(c2cccc(N=S(C)(C)=O)n2)[C@H]2CC(C)(C)OC[C@@]32C)cc1 (single isomer, unassigned) [Example 116] | 100 to 1000 nM
5 | Cc1cc(Nc2ncc3c(n2)N(c2cccc(N=S(C)(C)=O)n2)[C@H]2CC(C)(C)OC[C@@]32C)ccc1[C@@H]1CCN(C)C1 (single isomer, unassigned) [Example 146] | 10 to 100 nM
6 | CNCc1cccc(N2c3nc(Nc4ccc(N5C(=O)CC[C@H]5C)cc4)ncc3[C@]3(C)COC(C)(C)C[C@H]23)n1 (single isomer, unassigned) [Example 29] | 10 to 100 nM
7 | CN1CC[C@@](C)(c2ccc(Nc3ncc4c(n3)N(c3cccc(N=S(C)(C)=O)n3)[C@H]3CC(C)(C)OC[C@@]43C)cc2)C1 (single isomer, unassigned) [Example 170] | 10 to 100 nM

The remaining lines, values ahead:

Row | IC50 | Compound
8 | 100 to 1000 nM | CN[C@H](Cc1ccc(Nc2ncc3c(n2)N(c2cccc(N4C(=O)OC[C@@H]4C)n2)[C@H]2CC(C)(C)OC[C@@]32C)cc1)C(=O)O (single isomer, unassigned) [Example 322]
9 | 10 to 100 nM | C[C@H]1COC(=O)N1c1cccc(N2c3nc(Nc4ccc(N5C[C@@H]6C[C@H]5CN6C)c(F)c4)ncc3[C@]3(C)COC(C)(C)C[C@H]23)n1 (single isomer, unassigned) [Example 292]
10 | 100 to 1000 nM | C[C@H]1COC(=O)N1c1cccc(N2c3nc(Nc4ccc(N5CCN(C)CC5)nn4)ncc3[C@]3(C)COC(C)(C)C[C@H]23)n1 (single isomer, unassigned) [Example 248]
11 | 100 to 1000 nM | C[C@H]1COC(=O)N1c1cccc(N2c3nc(Nc4ccc(OC5CNC5)nc4)ncc3[C@]3(C)COC(C)(C)C[C@H]23)n1 (single isomer, unassigned) [Example 342]
12 | 100 to 1000 nM | C[C@H]1COC(=O)N1c1cccc(N2c3nc(Nc4ccc(C(C)(C)C)nc4)ncc3[C@]3(C)COC(C)(C)C[C@H]23)n1 (single isomer, unassigned) [Example 300]
13 | 10 to 100 nM | C[C@H]1COC(=O)N1c1cccc(N2c3nc(Nc4ccc(N5CC6(CN(C)C6)C5)cc4)ncc3[C@]3(C)COC(C)(C)C[C@H]23)n1 (single isomer, unassigned) [Example 354]
14 | 10 to 100 nM | C[C@H]1COC(=O)N1c1cccc(N2c3nc(Nc4cnn(C5CCNCC5)c4)ncc3[C@]3(C)COC(C)(C)C[C@H]23)n1 (single isomer, unassigned) [Example 254]
15 | 10 to 100 nM | Cc1cc(Nc2ncc3c(n2)N(c2cccc(N4C(=O)OC[C@@H]4C)n2)[C@H]2CC(C)(C)OC[C@@]32C)ccc1[C@@H]1CCNC1 (single isomer, unassigned) [Example 268]

Same assay, conditions: class symbols; 1 nM Wee1 enzyme, 15 uM ATP, 4 hours at 25° C.

Row | Compound | IC50
16 | CC1(C)C[C@H]2N(c3cccc(N=S(C)(C)=O)n3)c3nc(NC(=O)c4ccccc4F)ncc3[C@@]2(C)CO1 (single isomer, unassigned) [Example 409] | 100 to 1000 nM
17 | CC1(C)C[C@@H]2N(c3cccc([C@H]4CCCN4)n3)c3nc(Nc4ccc(N5CCOCC5)cc4)ncc3[C@]2(C)CO1 (single isomer, unassigned) [Example 527] | 10 to 100 nM
18 | CNc1ncc2c(n1)N(c1cccc(N=S(C)(C)=O)n1)[C@@H]1CC(C)(C)OC[C@]21C (single isomer, unassigned) [Example 723] | 10 to 100 nM
19 | CNCc1cccc(N2c3nc(Nc4ccc(N5CCOCC5)cc4)ncc3[C@]3(C)COCC[C@H]23)n1 (single isomer, unassigned) [Example 573] | 100 to 1000 nM
20 | CN1C[C@@H]2CN(c3ccc(Nc4ncc5c(n4)N(c4ccccn4)[C@@H]4CC(C)(C)OC[C@]54C)cc3)C[C@@H]2C1 (single isomer, unassigned) [Example 803] | < 10 nM
21 | Cc1cc(Nc2ncc3c(n2)N(c2cccc(C(C)(C)O)n2)[C@H]2CC(C)(C)OC[C@@]32C)ccc1N1C[C@@H]2C[C@H]1CN2C (single isomer, unassigned) [Example 430] | 10 to 100 nM
22 | CNCc1cccc(N2c3nc(Nc4ccc(=O)n(C)c4)ncc3[C@@]3(C)COC(C)(C)C[C@@H]23)n1 (single isomer, unassigned) [Example 462] | 10 to 100 nM
23 | CC1(C)C[C@H]2N(c3cccc(N=S(C)(C)=O)n3)c3nc(NC(=O)c4ccccn4)ncc3[C@@]2(C)CO1 (single isomer, unassigned) [Example 407] | 10 to 100 nM
24 | CC1(C)C[C@H]2N(c3ccccn3)c3nc(Nc4ccc(N5CCN6CC[C@H]5C6)cc4)ncc3[C@@]2(C)CO1 [Example 809, (4bR,8aR)-N-(4-((5S)-1,4-diazabicyclo[3.2.1]octan-4-yl)phenyl)-4b,7,7-trimethyl-9-(pyridin-2-yl)-4b,5,7,8,8a,9-hexahydropyrano[3′,4′:4,5]pyrrolo[2,3-d]pyrimidin-2-amine] | < 10 nM
25 | CC1(C)C[C@H]2N(c3cccc(N=S(C)(C)=O)n3)c3nc(Nc4ccncc4)ncc3[C@@]2(C)CO1 (single isomer, unassigned) [Example 512] | 100 to 1000 nM
26 | CN[C@H](C)c1cc(C)nc(N2c3nc(Nc4ccc(N5CCOCC5)cc4)ncc3[C@@]3(C)COC(C)(C)C[C@@H]23)c1 (single isomer, unassigned) [Example 557] | < 10 nM

Other lines, results leading:

Row | IC50 | Compound
27 | < 10 nM | CN1C[C@@H]2C[C@H]1CN2c1ccc(Nc2ncc3c(n2)N(c2cccc(N4C(=O)OCC4(C)C)n2)[C@@H]2CC(C)(C)OC[C@]32C)cc1 [Example 796, 4,4-dimethyl-3-(6-((4bR,8aR)-4b,7,7-trimethyl-2-((4-((1S,4S)-5-methyl-2,5-diazabicyclo[2.2.1]heptan-2-yl)phenyl)amino)-4b,7,8,8a-tetrahydropyrano[3′,4′:4,5]pyrrolo[2,3-d]pyrimidin-9(5H)-yl)pyridin-2-yl)oxazolidin-2-one]
28 | 10 to 100 nM | CNCc1cccc(N2c3nc(Nc4ccc(N5CCN(C)C(=O)C5)cc4)ncc3[C@]3(C)COC(C)(C)C[C@H]23)n1 (single isomer, unassigned) [Example 449]
29 | 100 to 1000 nM | CN1CC[C@H](Oc2ccc(Nc3ncc4c(n3)N(c3cccc(N5CCOC5=O)n3)[C@H]3CC(C)(C)OC[C@@]43C)cc2)C1 [Example 614, 3-(6-((4bS,8aS)-4b,7,7-trimethyl-2-((4-(((S)-1-methylpyrrolidin-3-yl)oxy)phenyl)amino)-4b,7,8,8a-tetrahydropyrano[3′,4′:4,5]pyrrolo[2,3-d]pyrimidin-9(5H)-yl)pyridin-2-yl)oxazolidin-2-one]
30 | 10 to 100 nM | CN1CC[C@@](C)(c2ccc(Nc3ncc4c(n3)N(c3cccc(N5CCOC5=O)n3)[C@H]3CC(C)(C)OC[C@@]43C)cc2)C1 [Example 671, 3-(6-((4bS,8aS)-2-((4-((S)-1,3-dimethylpyrrolidin-3-yl)phenyl)amino)-4b,7,7-trimethyl-4b,7,8,8a-tetrahydropyrano[3′,4′:4,5]pyrrolo[2,3-d]pyrimidin-9(5H)-yl)pyridin-2-yl)oxazolidin-2-one]
31 | < 10 nM | CN1C[C@H]2C[C@@H]1CN2c1ccc(Nc2ncc3c(n2)N(c2cccc(N4C(=O)OCC4(C)C)n2)[C@@H]2CC(C)(C)OC[C@]32C)cc1 [Example 795, 4,4-dimethyl-3-(6-((4bR,8aR)-4b,7,7-trimethyl-2-((4-((1R,4R)-5-methyl-2,5-diazabicyclo[2.2.1]heptan-2-yl)phenyl)amino)-4b,7,8,8a-tetrahydropyrano[3′,4′:4,5]pyrrolo[2,3-d]pyrimidin-9(5H)-yl)pyridin-2-yl)oxazolidin-2-one]
32 | 100 to 1000 nM | Cc1cc(Nc2ncc3c(n2)N(c2cccc(C(=O)N(C)C)n2)[C@H]2CC(C)(C)OC[C@@]32C)ccc1C1CCN(C)CC1 (single isomer, unassigned) [Example 584]
33 | 10 to 100 nM | C[C@H]1CCC(=O)N1c1cccc(N2c3nc(Nc4ccc(N5C[C@@H]6C[C@H]5CN6C)cc4)ncc3[C@]3(C)COC(C)(C)C[C@H]23)n1 [Example 650, (S)-5-methyl-1-(6-((4bS,8aS)-4b,7,7-trimethyl-2-((4-((1S,4S)-5-methyl-2,5-diazabicyclo[2.2.1]heptan-2-yl)phenyl)amino)-4b,7,8,8a-tetrahydropyrano[3′,4′:4,5]pyrrolo[2,3-d]pyrimidin-9(5H)-yl)pyridin-2-yl)pyrrolidin-2-one]
34 | 10 to 100 nM | Cc1cc(Nc2ncc3c(n2)N(c2cccc(N4CCOC4=O)n2)[C@H]2CC(C)(C)OC[C@@]32C)ccc1C1CCN(C)CC1 (single isomer, unassigned) [Example 596]
35 | 10 to 100 nM | Cc1cc(Nc2ncc3c(n2)N(c2cccc(N4CCOC4=O)n2)[C@H]2CC(C)(C)OC[C@@]32C)ccc1N1C[C@@H]2C[C@H]1CN2C [Example 655, 3-(6-((4bS,8aS)-4b,7,7-trimethyl-2-((3-methyl-4-((1S,4S)-5-methyl-2,5-diazabicyclo[2.2.1]heptan-2-yl)phenyl)amino)-4b,7,8,8a-tetrahydropyrano[3′,4′:4,5]pyrrolo[2,3-d]pyrimidin-9(5H)-yl)pyridin-2-yl)oxazolidin-2-one]

Source: patent publication US20260166039A1 (SCHRÖDINGER, INC., priority 2022, published 2026)
